Values quoted from earlier work, collected in patent US20060167069A1, “Pharmaceutical composition of metaxalone with enhanced oral bioavailability” (Sun Pharmaceutical Industries Ltd., priority 2002, published 2006).

Conditions: prior art statement

- aqueous solubility: low aqueous solubility
Structure (SMILES): Cc1cc(C)cc(OCC2CNC(=O)O2)c1 (stereo not shown) [Metaxalone, 5-(3,5-dimethylphenoxymethyl)-2-oxazolidinone]
